These results are taken from US11613531B2, “Inhibitors of RHO associated coiled-coil containing protein kinase” (Kadmon Corporation, LLC, priority 2017, dated 2023).

For data set [1], the target named is Recombinant ROCK1 (amino acids 1-535) (Homo sapiens (Human), UniProt Q13464). Kind of data set: Z′-Lyte kinase assay, ROCK1. The data set is classed as biochemical. Conditions: 9 points 2-fold serial dilution. The method in brief:
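Recombinant human ROCK1 (aa 1-535) or ROCK2 (aa 1-552) activity read by Z′-Lyte kinase assay. Percent inhibition at 1 μM compound was normalized to DMSO control; IC50 from 9-point 2-fold serial dilutions by nonlinear regression.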

Data set [2] relates to phosphorylation of ROCK targets MLC and MYPT1 in A7R5 cells. In words: Western blot of A7R5 cell lysates (ppMlc, MYPT1). The class given is cell-based, Rat. Conditions: 110 nM, 90 min. The procedure: FIG. 1c. Western blot of A7R5 cell lysates to visualize ppMlc (T18/S19) levels following treatment with the compound of Example 192 (“Example 192”) for 90 min. A7R5 cells were treated with the compound and ppMlc (T18/S19) levels were visualized by western blotting.
A7R5 cells were treated with the compound of Example 192 for 90 min and ppMlc (T18/S19) levels were visualized by western blotting.
(In western blotting, separated proteins are transferred to a membrane and probed.)

In data set [3] the test system is Bleomycin induced lung fibrosis in mice. Kind of data set: Prophylactic bleomycin induced lung fibrosis model. Particulars: 21-day treatment. The class given is in vivo. The text has this: FIG. 9a. ROCK inhibitor is active in a mouse model of pulmonary fibrosis. Representative images of lung sections stained with Masson's trichrome to visualized fibrosis in the lungs of mice following 21-day treatment with ROCK inhibitor in the bleomycin-induced lung injury model.
FIG. 9b. […] Ashcroft fibrotic indices, α-smooth muscle actin (αSMA) percentage positive area and total leukocytes count in bronchoalveolar lavage fluid obtained from lungs of mice in the bleomycin lung fibrosis model treated with compound of Example 192.
Prophylactic Efficacy of Compounds in Bleomycin Induced Lung Fibrosis in Mice
Male C57B/L6 mice were ear tagged and weighed prior to the start of the study. Treatment group animals were treated with the compound on day −1 pre-bleomycin and all subsequent days post-bleomycin administration. On day 0, animals in disease groups received 1.5 U/kg dose of bleomycin via oropharyngeal route. […] Animals were closely monitored daily till the end of the study. […] Blood samples were used for plasma preparation; total leukocytes were counted in BAL fluid; and lungs were fixed in 10% neutral buffered formalin for histopathological analysis.
Based on the strong anti-fibrotic cellular activity of ROCK inhibitors of this invention, the ability of such inhibitors to attenuate fibrosis in the in vivo setting was assessed in several mouse models of disease. […]

The test system of data set [4] is Histamine-induced vascular permeability in mice. In words: Histamine-induced vascular permeability model. The data set is classed as in vivo. Conditions: single oral dose 1 hr. prior to histamine injection. The text has this: FIG. 12a. ROCK inhibition stabilizes the endothelial barrier function in a histamine-induced vascular permeability model in mice. Representative images of Evan's Blue dye extravasation induced by histamine in the skin of ROCK inhibitor and vehicle treated mice, relative to the control compound (salbutamol). ROCK inhibitor induces vascular barrier stabilization following single dose of compound administered 1 hr. prior to histamine injection.
FIG. 12b. Quantitation of the decrease in spot area size and Evan's Blue dye amount in the skin of ROCK inhibitor treated mice following the induction of capillary leakage by histamine injection.
Histamine-Induced Vascular Permeability Model in Mice […]
20 minutes post challenge with histamine, animals were euthanized. The skin was then inverted, the lesion diameters were measured. The area of the lesion was calculated and expressed in square millimeters. Following diameter measurements, Evan's Blue dye was extracted from the skin tissue and the optical density was measured. Data are calculated against a spiked in Evan's Blue standard curve. […]
The extent of compound efficacy was quantitated by calculating both the overall skin spot area and the amount of Evans Blue dye permeating the skin. 20 Minutes post challenge with histamine, animals were euthanized, the lesion diameters were measured. […]

Usually IC50 stands for the concentration needed to halve the response being measured.

Recombinant ROCK1 (amino acids 1-535), sequence (Q13464 1-535): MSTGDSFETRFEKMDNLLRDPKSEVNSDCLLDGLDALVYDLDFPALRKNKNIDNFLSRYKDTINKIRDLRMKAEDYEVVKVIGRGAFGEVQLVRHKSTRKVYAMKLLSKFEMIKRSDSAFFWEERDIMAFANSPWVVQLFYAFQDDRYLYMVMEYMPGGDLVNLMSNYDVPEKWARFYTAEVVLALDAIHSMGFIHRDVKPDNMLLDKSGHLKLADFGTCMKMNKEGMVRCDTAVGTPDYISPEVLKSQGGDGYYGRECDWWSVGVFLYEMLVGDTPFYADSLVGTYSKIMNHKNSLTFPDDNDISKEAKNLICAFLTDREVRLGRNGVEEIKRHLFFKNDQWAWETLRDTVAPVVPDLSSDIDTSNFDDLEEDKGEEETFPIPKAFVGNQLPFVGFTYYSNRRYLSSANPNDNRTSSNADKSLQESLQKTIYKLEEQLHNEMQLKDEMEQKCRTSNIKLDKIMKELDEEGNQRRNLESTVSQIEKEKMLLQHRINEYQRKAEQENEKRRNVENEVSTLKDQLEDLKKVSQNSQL

Take `Clc1cnc(N2C3CCC2CNC3)nc1Nc1ccc2[nH]ncc2c1` [Example 192, N-(2-(3,8-diazabicyclo[3.2.1]octan-8-yl)-5-chloropyrimidin-4-yl)-1H-indazol-5-amine]: the IC50 in data set [1] turned out to be 5 nM. Besides, the “phosphorylation of ROCK targets MLC and MYPT1” value in data set [2] is listed as “efficiently blocked”. Besides, the “activity in bleomycin lung fibrosis model (Ashcroft fibrotic indices, αSMA percentage positive area, total leukocytes count in BAL fluid)” value in data set [3] is on record as “positive activity”. Further, in data set [4], the “vascular permeability induced by histamine (Evan's Blue dye extravasation)” value is “blocked”.
